Consider 62 compounds from the Kinase Knowledgebase extract (Sharma et al. 2016).

A value given as a limit tells only on which side of the number the result lay.

The target of test [1] is PIK3CA (human) (UniProt P42336). The test can be described thus: Inhibition of PIK3CA Kinase Activity.
Test [2] concerns the target PIK3CD (Human) (UniProt O00329). Briefly: Inhibition of PIK3CD Kinase Activity.
Test [3] addresses PIK3CG (human) (UniProt P48736). The test can be described thus: Inhibition of PIK3CG Kinase Activity.
In test [4] the target is PIK3CB (Human) (UniProt P42338). Briefly: Inhibition of PIK3CB Kinase Activity.
PIK3CB (Human), sequence (P42338 whole entry, looked up): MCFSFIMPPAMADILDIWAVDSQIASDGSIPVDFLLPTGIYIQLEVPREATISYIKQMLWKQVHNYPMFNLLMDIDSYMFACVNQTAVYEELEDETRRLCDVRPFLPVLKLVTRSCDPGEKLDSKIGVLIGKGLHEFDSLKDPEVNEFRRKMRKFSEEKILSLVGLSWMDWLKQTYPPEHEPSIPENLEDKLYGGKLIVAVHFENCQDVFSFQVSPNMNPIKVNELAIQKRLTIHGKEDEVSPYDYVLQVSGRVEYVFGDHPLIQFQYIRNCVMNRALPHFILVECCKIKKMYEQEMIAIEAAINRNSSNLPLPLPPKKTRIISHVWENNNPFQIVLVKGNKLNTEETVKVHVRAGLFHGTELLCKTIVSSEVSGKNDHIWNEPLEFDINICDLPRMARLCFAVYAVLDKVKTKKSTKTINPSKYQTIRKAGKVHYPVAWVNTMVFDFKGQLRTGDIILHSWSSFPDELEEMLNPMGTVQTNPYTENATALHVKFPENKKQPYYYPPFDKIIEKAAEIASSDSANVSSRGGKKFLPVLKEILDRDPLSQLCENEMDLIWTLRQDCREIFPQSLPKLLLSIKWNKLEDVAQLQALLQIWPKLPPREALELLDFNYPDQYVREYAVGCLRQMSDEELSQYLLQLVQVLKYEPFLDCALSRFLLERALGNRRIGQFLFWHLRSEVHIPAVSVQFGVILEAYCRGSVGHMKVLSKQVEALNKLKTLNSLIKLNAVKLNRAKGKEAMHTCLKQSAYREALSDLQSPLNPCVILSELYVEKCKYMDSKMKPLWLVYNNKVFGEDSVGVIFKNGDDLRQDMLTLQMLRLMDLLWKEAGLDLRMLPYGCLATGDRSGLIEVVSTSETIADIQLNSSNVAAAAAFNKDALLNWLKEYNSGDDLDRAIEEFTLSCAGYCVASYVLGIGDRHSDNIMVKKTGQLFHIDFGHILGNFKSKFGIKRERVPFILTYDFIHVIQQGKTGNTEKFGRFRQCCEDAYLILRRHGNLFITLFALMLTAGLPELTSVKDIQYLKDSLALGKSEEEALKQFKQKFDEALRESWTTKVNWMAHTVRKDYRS

PIK3CA (human), sequence (P42336 whole entry, looked up): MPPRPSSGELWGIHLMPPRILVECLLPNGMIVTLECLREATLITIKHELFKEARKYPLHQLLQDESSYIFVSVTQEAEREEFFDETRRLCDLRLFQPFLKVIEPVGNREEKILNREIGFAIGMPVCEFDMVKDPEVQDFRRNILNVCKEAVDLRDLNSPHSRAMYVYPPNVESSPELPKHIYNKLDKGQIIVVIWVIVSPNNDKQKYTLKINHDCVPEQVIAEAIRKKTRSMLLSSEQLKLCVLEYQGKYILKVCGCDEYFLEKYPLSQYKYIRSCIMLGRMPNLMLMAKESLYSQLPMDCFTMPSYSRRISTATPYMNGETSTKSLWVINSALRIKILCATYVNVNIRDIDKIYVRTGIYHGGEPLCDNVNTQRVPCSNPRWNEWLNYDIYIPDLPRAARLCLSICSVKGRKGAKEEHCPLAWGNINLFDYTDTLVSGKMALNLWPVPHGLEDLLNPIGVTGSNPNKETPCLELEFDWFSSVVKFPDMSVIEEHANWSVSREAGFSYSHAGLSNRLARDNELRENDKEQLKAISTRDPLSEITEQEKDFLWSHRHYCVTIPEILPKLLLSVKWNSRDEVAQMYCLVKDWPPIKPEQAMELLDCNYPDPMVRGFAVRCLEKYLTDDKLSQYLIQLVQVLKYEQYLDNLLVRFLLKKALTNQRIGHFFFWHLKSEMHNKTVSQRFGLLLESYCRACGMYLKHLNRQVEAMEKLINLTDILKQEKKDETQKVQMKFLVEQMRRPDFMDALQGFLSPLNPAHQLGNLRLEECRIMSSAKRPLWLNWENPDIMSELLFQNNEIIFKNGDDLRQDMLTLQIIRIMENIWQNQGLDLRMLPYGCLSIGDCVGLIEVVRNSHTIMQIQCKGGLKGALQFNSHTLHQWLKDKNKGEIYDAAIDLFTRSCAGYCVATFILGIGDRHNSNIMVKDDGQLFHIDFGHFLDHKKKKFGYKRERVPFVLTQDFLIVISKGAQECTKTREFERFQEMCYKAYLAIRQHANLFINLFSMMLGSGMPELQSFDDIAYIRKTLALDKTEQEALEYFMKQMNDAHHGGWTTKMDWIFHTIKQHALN
PIK3CG (human), sequence (P48736 whole entry, looked up): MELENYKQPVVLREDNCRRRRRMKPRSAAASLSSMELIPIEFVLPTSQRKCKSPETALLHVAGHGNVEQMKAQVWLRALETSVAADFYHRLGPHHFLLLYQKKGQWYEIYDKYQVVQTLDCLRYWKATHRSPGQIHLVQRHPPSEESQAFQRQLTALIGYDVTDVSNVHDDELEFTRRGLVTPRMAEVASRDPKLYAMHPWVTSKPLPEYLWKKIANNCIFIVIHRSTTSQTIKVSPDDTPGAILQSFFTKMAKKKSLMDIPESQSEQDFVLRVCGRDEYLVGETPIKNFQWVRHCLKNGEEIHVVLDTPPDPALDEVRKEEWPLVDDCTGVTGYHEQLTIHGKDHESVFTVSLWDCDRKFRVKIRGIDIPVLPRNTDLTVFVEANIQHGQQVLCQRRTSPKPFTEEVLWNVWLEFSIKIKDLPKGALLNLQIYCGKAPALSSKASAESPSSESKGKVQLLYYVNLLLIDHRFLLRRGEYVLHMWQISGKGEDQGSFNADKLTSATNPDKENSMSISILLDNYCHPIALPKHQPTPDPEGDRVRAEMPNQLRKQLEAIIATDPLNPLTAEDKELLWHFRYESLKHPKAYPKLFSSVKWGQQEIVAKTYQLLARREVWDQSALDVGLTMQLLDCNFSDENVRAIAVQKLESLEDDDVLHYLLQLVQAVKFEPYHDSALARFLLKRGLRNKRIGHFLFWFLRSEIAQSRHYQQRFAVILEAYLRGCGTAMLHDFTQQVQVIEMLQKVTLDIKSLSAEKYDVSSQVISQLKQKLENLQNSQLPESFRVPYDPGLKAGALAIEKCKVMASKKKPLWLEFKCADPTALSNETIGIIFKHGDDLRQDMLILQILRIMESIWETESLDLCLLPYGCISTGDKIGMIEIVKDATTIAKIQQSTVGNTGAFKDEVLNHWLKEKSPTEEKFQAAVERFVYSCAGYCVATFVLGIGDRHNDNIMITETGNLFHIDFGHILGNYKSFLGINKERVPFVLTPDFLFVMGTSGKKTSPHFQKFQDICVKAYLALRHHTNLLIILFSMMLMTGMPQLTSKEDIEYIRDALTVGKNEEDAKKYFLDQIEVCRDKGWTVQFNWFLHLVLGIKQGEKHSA
PIK3CD (Human), sequence (O00329 whole entry, looked up): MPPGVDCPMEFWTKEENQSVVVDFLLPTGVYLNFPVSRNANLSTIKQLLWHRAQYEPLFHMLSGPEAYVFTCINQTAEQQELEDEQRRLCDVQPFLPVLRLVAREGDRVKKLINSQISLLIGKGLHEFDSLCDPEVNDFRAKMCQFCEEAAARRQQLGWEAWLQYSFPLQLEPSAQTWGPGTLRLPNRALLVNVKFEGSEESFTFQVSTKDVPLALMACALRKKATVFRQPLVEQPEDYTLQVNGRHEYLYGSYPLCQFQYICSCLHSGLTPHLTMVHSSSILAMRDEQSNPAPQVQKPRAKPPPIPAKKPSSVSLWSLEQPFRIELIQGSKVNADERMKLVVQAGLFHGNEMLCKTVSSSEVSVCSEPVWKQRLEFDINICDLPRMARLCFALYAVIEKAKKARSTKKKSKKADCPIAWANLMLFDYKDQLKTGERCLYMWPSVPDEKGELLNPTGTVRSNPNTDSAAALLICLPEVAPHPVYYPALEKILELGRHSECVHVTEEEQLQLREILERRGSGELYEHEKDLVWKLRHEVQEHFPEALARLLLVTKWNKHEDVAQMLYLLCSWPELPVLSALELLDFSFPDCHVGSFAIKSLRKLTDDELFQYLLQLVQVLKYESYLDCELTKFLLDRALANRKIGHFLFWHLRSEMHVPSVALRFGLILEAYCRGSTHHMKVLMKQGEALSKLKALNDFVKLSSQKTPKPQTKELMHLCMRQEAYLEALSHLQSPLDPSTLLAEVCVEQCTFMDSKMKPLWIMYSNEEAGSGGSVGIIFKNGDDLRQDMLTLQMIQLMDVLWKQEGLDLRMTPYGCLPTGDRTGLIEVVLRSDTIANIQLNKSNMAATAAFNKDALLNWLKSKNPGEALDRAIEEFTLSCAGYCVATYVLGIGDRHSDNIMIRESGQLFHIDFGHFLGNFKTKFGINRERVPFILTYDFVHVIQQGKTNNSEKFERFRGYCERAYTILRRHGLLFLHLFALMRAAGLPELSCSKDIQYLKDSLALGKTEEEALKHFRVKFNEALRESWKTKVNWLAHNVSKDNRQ

Consider `CC(=O)Nc1cn2nc(-c3cccc(S(=O)(=O)NCCO)c3)ccc2n1`, for which the 50% inhibitory concentration (IC50) in test [1], in test [2] and in test [3] was < 1 µM each time.

Turning to `CN(C)C(=O)CNC(=O)Nc1nc2ccc(-c3cccc(S(C)(=O)=O)c3)cc2s1`, the IC50 in test [1], in test [2] and in test [3] was < 1 µM each time.

In the case of `CC(=O)Nc1nc2ccc(-c3cccc(S(C)(=O)=O)c3)cc2s1`, the IC50 in test [1], in test [2] and in test [3] was < 1 µM each time.

On to `CC(=O)Nc1nc2ccc(-c3ccc(O)c(F)c3)cc2s1`, for which, in test [3], the IC50 was < 1 µM.

With `CC(=O)Nc1nc2ccc(-c3cccc(S(=O)(=O)N4CCC(O)CC4)c3)cc2s1`, the IC50 in test [1], in test [2] and in test [3] was < 1 µM each time.

For the compound `CCNS(=O)(=O)c1cccc(-c2ccc3nc(NC(C)=O)sc3c2)c1`, the concentration for half-maximal inhibition (IC50) in test [1], in test [2] and in test [3] was < 1 µM each time.

Take `CC(=O)Nc1cn2cc(-c3cccc(S(C)(=O)=O)c3)ccc2n1`: the concentration for half-maximal inhibition (IC50) in test [1] and in test [2] was < 1 µM throughout.

As to `CC(=O)Nc1nc2ccc(-c3cccc(S(=O)(=O)N4CCOCC4)c3)cc2s1`, the concentration for half-maximal inhibition (IC50) in test [1] and in test [3] was < 1 µM each time.

As for `CCOC(=O)CCNC(=O)Nc1nc2ccc(-c3cccc(S(C)(=O)=O)c3)cc2s1`, the IC50 in test [4] and in test [3] was < 1 µM in each case.

With `COc1cc(-c2ccc3nc(NC(=O)NCC(=O)N4CCOCC4)sc3c2)ccc1O`, the half-maximal inhibitory concentration (IC50) in test [1], in test [4], in test [2] and in test [3] was < 1 µM each time.

Regarding `COc1cc(-c2ccc3nc(NC(=O)NCCC(=O)OC(C)(C)C)sc3c2)ccc1O`, the IC50 in test [3] is < 1 µM.

For the compound `CS(=O)(=O)c1cccc(-c2ccc3nc(NC(=O)NCCC(=O)N4CCOCC4)sc3c2)c1`, the IC50 in test [4] and in test [3] was < 1 µM in each case.

For the compound `CC(=O)Nc1nc2ccc(-c3cccc(S(=O)(=O)NC4CCCN(C(=O)OC(C)(C)C)C4)c3)cc2s1` (stereo unspecified), in test [1], the 50% inhibitory concentration (IC50) was < 1 µM.

`CC(=O)Nc1nc2ccc(-c3cccc(S(=O)(=O)N4CCCC(N)C4)c3)cc2s1` (stereo unspecified): the IC50 in test [1], in test [4], in test [2] and in test [3] was < 1 µM each time.

Turning to `CC(=O)Nc1nc2ccc(-c3cccc(C(=O)NCCO)c3)cc2s1`, the half-inhibitory concentration (IC50) in test [4] is > 20 µM.

In the case of `CS(=O)(=O)c1cccc(-c2ccc3nc(NC(=O)c4ccco4)sc3c2)c1`, the IC50 in test [1] and in test [2] was > 20 µM each time.

As for `CC(=O)Nc1nc2ccc(-c3cccc(C(N)=O)c3)cc2s1`, in test [3], the IC50 was < 1 µM.

For `COCCNS(=O)(=O)c1cccc(-c2ccc3nc(NC(C)=O)sc3c2)c1`, the IC50 in test [1], in test [2] and in test [3] was < 1 µM throughout.

For the compound `CC(=O)Nc1nc2ccc(-c3cccc(S(=O)(=O)NC(CO)CO)c3)cc2s1`, the IC50 in test [1], in test [2] and in test [3] was < 1 µM throughout.

Take `CCC(=O)Nc1nc2ccc(-c3cccc(S(C)(=O)=O)c3)cc2s1`: the concentration for half-maximal inhibition (IC50) in test [2] was < 1 µM.

In the case of `CS(=O)(=O)c1cccc(-c2ccc3nc(NC(=O)NCCc4noc(-c5ccccc5)n4)sc3c2)c1`, the half-maximal inhibitory concentration (IC50) in test [3] was > 20 µM.

For the compound `CC(=O)Nc1nc2ccc(-c3cccc(S(N)(=O)=O)c3)cc2s1`, the IC50 in test [1], in test [2] and in test [3] was < 1 µM each time.

For the compound `CC(=O)Nc1nc2ccc(-c3cccc(NS(=O)(=O)N(C)C)c3)cc2s1`, in test [3], the IC50 was < 1 µM.

`CC(=O)Nc1nc2ccc(-c3cccc(S(=O)(=O)NC4CCCOC4)c3)cc2s1` (stereo unspecified): the half-inhibitory concentration (IC50) in test [1], in test [2] and in test [3] was < 1 µM each time.

Regarding `CC(C)n1nnc(CCNC(=O)Nc2nc3ccc(-c4cccc(S(C)(=O)=O)c4)cc3s2)n1`, in test [3], the 50% inhibitory concentration (IC50) is < 1 µM.

Take `CC(C)(C)OC(=O)CCNC(=O)Nc1nc2ccc(-c3cccc(S(C)(=O)=O)c3)cc2s1`: the IC50 in test [1] was > 20 µM; in test [4], < 1 µM; in test [2], > 20 µM; in test [3], < 1 µM.

For `CC(C)n1cnc(CCNC(=O)Nc2nc3ccc(-c4cccc(S(C)(=O)=O)c4)cc3s2)c1`, the 50% inhibitory concentration (IC50) in test [4] and in test [3] was < 1 µM each time.

As to `CC(=O)Nc1nc2ccc(-c3cncc(S(N)(=O)=O)c3)cc2s1`, the IC50 in test [1], in test [4], in test [2] and in test [3] was < 1 µM throughout.

As for `CC(=O)Nc1nc2ccc(-c3cccc(NS(C)(=O)=O)c3)cc2s1`, the IC50 in test [1], in test [2] and in test [3] was < 1 µM each time.

In the case of `CC(=O)Nc1nc2ccc(-c3cccc(S(=O)(=O)NCC(O)CO)c3)cc2s1` (stereo unspecified), the IC50 in test [1], in test [2] and in test [3] was < 1 µM throughout.

Consider `CS(=O)(=O)c1cccc(-c2ccc3nc(NC=O)sc3c2)c1`, for which the IC50 in test [4] was > 20 µM.

Turning to `CC(=O)Nc1nc2ccc(-c3cccc(S(C)(=O)=O)n3)cc2s1`, the IC50 was < 1 µM in test [1], > 20 µM in test [4] and < 1 µM in test [2].

As for `CC(=O)Nc1nc2ccc(-c3cc(C(F)(F)F)cc(S(=O)(=O)NCCO)c3)cc2s1`, in test [1], the half-maximal inhibitory concentration (IC50) was > 20 µM.

For the compound `CC(=O)Nc1nc2ccc(-c3cccc(S(=O)(=O)N(CCO)CCO)c3)cc2s1`, the IC50 in test [1], in test [2] and in test [3] was < 1 µM throughout.

Turning to `CC(=O)Nc1nc2ccc(-c3ccncc3)cc2s1`, in test [3], the IC50 was < 1 µM.

With `CC(C)c1noc(CCNC(=O)Nc2nc3ccc(-c4cccc(S(=O)(=O)NCCO)c4)cc3s2)n1`, the IC50 in test [4] and in test [3] was < 1 µM throughout.

In the case of `CC(C)c1noc(CCNC(=O)Nc2nc3ccc(-c4cccc(S(=O)(=O)N(C)C)c4)cc3s2)n1`, the IC50 in test [1] was > 20 µM.

In the case of `CC(=O)Nc1cn2nc(-c3cccc(S(C)(=O)=O)c3)ccc2n1`, the IC50 in test [1], in test [2] and in test [3] was < 1 µM throughout.

Turning to `CC(=O)Nc1nc2ccc(-c3cccc(S(=O)(=O)N4CCN(C)C(=O)C4)c3)cc2s1`, the 50% inhibitory concentration (IC50) in test [1] was < 1 µM.

Consider `CC(C)(C)OCCCNC(=O)Nc1nc2ccc(-c3cccc(S(C)(=O)=O)c3)cc2s1`, for which the half-maximal inhibitory concentration (IC50) in test [1] and in test [2] was > 20 µM throughout.

For the compound `CS(=O)(=O)c1cccc(-c2ccc3nc(NC(=O)C(=O)N4CCCC4)sc3c2)c1`, the half-maximal inhibitory concentration (IC50) in test [2] was < 1 µM.

As for `CC(=O)Nc1nc2ccc(-c3cccc(S(=O)(=O)NCCCO)c3)cc2s1`, the 50% inhibitory concentration (IC50) in test [1], in test [2] and in test [3] was < 1 µM each time.

On to `CC(=O)Nc1nc2ccc(-c3cccc(S(=O)(=O)NCCN4CCOCC4)c3)cc2s1`, for which the IC50 in test [1], in test [2] and in test [3] was < 1 µM in each case.

Regarding `CC(=O)Nc1nc2ccc(-c3cccc(S(=O)(=O)N(C)C)c3)cc2s1`, the IC50 in test [1] and in test [3] was < 1 µM each time.

For the compound `CC(=O)Nc1nc2ccc(-c3cccc(S(=O)(=O)CCO)c3)cc2s1`, the IC50 in test [2] and in test [3] was < 1 µM throughout.

Consider `CC(=O)Nc1nc2ccc(-c3cccc(S(=O)(=O)NCCO)c3)cc2s1`, for which the concentration for half-maximal inhibition (IC50) in test [1], in test [4], in test [2] and in test [3] was < 1 µM in each case.

In the case of `COC(=O)c1cccc(-c2ccc3nc(NC(C)=O)sc3c2)c1`, the IC50 in test [3] is > 20 µM.

Regarding `CC(=O)Nc1nc2ccc(-c3ccc(Cl)c(S(=O)(=O)NCCO)c3)cc2s1`, the IC50 in test [1], in test [2] and in test [3] was < 1 µM throughout.

Take `COc1cc(-c2ccc3nc(NC(=O)NCCc4nc(C(C)C)no4)sc3c2)ccc1O`: the IC50 in test [4] is < 1 µM.

With `CC(=O)Nc1nc2ccc(-c3cccc(S(=O)(=O)N4CCCC(NC(=O)OC(C)(C)C)C4)c3)cc2s1` (stereo unspecified), the IC50 in test [1] is < 1 µM.

`CC(=O)Nc1nc2ccc(-c3cccc(S(=O)(=O)N4CCCC(O)C4)c3)cc2s1` (stereo unspecified): the IC50 in test [1], in test [2] and in test [3] was < 1 µM throughout.

With `CC(=O)Nc1nc2ccc(-c3cccc(S(=O)(=O)N(C)CCO)c3)cc2s1`, the IC50 in test [1], in test [4], in test [2] and in test [3] was < 1 µM each time.

In the case of `CN(C)S(=O)(=O)c1cccc(-c2ccc3nc(NC(=O)NCCC(=O)OC(C)(C)C)sc3c2)c1`, the half-maximal inhibitory concentration (IC50) is > 20 µM in test [1], < 1 µM in test [4] and < 1 µM in test [3].

Regarding `CC(=O)Nc1nc2ccc(-c3cccc(S(=O)(=O)NC4CCCNC4)c3)cc2s1` (stereo unspecified), the half-maximal inhibitory concentration (IC50) in test [1], in test [2] and in test [3] was < 1 µM each time.

`CC(=S)Nc1cn2nc(-c3cccc(S(C)(=O)=O)c3)ccc2n1`: the IC50 in test [1], in test [2] and in test [3] was < 1 µM throughout.

Regarding `COc1cc(-c2ccc3nc(NC(C)=O)cn3n2)ccc1O`, the IC50 in test [1], in test [4], in test [2] and in test [3] was < 1 µM throughout.

On to `COc1cccc(-c2ccc3nc(NC(C)=O)sc3c2)c1`, for which the IC50 in test [2] was > 20 µM.

`CC(=O)Nc1nc2ccc(-c3cccc(S(=O)(=O)CCCO)c3)cc2s1`: the half-maximal inhibitory concentration (IC50) in test [1] and in test [2] was < 1 µM each time.

On to `CS(=O)(=O)c1cccc(-c2ccc3nc(NC(=O)NCCC(=O)N4CCCC4)sc3c2)c1`, for which the IC50 in test [4], in test [2] and in test [3] was < 1 µM each time.

Turning to `CC(=O)Nc1nc2ccc(-c3ccc(C)c(S(C)(=O)=O)c3)cc2s1`, the IC50 in test [2] is < 1 µM.

For the compound `CC(C)(C)OC(=O)CCNC(=O)Nc1nc2ccc(-c3cccc(S(=O)(=O)NCCO)c3)cc2s1`, the IC50 in test [4] and in test [3] was < 1 µM each time.

Take `CS(=O)(=O)c1cccc(-c2ccc3nc(NC(=O)NCC(=O)N4CCOCC4)sc3c2)c1`: the IC50 in test [1], in test [2] and in test [3] was < 1 µM in each case.
